In US6350764B2, “Heteroaryl aminoguanidines and alkoxyguanidines and their use as protease inhibitors” (3-Dimensional Pharmaceuticals, Inc., priority 1997, dated 2002):
Structures can show the parent of a compound that is named as a salt.

Key:
Type in all cases: biochemical
bovine trypsin = target: T1, bovine trypsin (Bos taurus, UniProt P00760); test: In vitro inhibition of purified enzymes: trypsin, hydrolysis of N-benzoyl-Phe-Val-Arg-p-nitroanilide; conditions: for Ki: 37° C., pH 7.5
T1 construct: Purified bovine trypsin was diluted into assay buffer; purchased Sigma T8642
T1 sequence (P00760 24-246): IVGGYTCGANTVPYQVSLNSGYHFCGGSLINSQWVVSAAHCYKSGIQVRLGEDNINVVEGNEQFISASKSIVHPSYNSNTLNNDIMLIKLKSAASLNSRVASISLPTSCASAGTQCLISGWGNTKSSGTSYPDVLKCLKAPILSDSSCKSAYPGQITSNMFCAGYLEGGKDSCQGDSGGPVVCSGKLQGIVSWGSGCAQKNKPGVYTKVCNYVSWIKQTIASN
Text: (§1) Reagents: All buffer salts were obtained from Sigma Chemical Company (St. Louis, Mo.), and were of the highest purity available. The enzyme substrates, N-benzoyl-Phe-Val-Arg-p-nitroaniide (Sigma B7632) N-benzoyl-Ile-Glu-Gly-Arg-p-nitroanilide hydrochloride (Sigma B2291), N-p-Tosyl-Gly-Pro-Lys-p-nitroanilide (Sigma T6140), N-succinyl-Ala-Ala-Pro-Phe-p-nitroanilide (Sigma S7388) and N-CBZ-Val-Gly-Arg-p-nitroanilide (Sigma C7271) were obtained from Sigma. N-succinyl-Ala-Ala-Pro-Arg-p-nitroanilide (BACHEM L-1720) and N-succinyl-Ala-Ala-Pro-Val-p-nitroanilide (BACHEM L-1770) were obtained from BACHEM (King of Prussia, Pa.).
(§2) Human α-thrombin, human factor Xa and human plasmin were obtained from Enzyme Research Laboratories (South Bend, Id.). Bovine α-chymotrypsin (Sigma C4129), bovine trypsin (Sigma T8642) and human kidney cell urokinase (Sigma U5004) were obtained from Sigma. Human leukocyte elastase was obtained from Elastin Products (Pacific, Mo.).
(§3) Ki Determinations: All assays are based on the ability of the test compound to inhibit the enzyme catalyzed hydrolysis of a peptide p-nitroanilide substrate. In atypical Ki determination, substrate is prepared in DMSO, and diluted into an assay buffer consisting of 50 mM HEPES, 200 mM NaCl, pH 7.5. The final concentrations for each of the substrates is listed below. In general, substrate concentrations are lower than the experimentally determined value for Km. Test compounds are prepared as a 1.0 mg/ml solution in DMSO. Dilutions are prepared in DMSO yielding 8 final concentrations encompassing a 200 fold concentration range. Enzyme solutions are prepared at the concentrations listed below in assay buffer.
(§4) In a typical Ki determination, into each well of a 96 well plate is pipetted 280 mL of substrate solution, 10 mL of test compound solution, and the plate allowed to thermally equilibrate at 37° C. in a Molecular Devices plate reader for>15 minutes. Reactions were initiated by the addition of a […] aliquot of enzyme and the absorbance increase at 405 nm is recorded for 15 minutes. Data corresponding to less than 10% of the total substrate hydrolysis were used in the calculations. The ratio of the velocity (rate of change in absorbance as a function of time) for a sample containing no test compound is divided by the velocity of a sample containing test compound, and is plotted as a function of test compound concentration. The data are fit to a linear regression, and the value of the slope of the line calculated. The inverse of the slope is the experimentally determined Ki value.
Trypsin: Trypsin activity was assessed as the ability to hydrolyze N-benzoyl-Phe-Val-Arg-p-nitroanilide. […] Final DMSO concentration was 4.3%. Purified bovine trypsin was diluted into assay buffer to a concentration of 120 nM. Final reagent concentrations were: [Trypsin]=4 nM, [N-benzoyl-Phe-Val-Arg-p-nitroanilide]=13 mM.

human α-thrombin = target: T2, human α-thrombin (Homo sapiens, UniProt P00734); test: In vitro inhibition of purified enzymes: thrombin, hydrolysis of N-succinyl-Ala-Ala-Pro-Arg-p-nitroanilide; conditions: 37° C., pH 7.5
T2 construct: Purified human a-thrombin was diluted into assay buffer; purchased Enzyme Research Laboratories (South Bend)
Text: as §1, with “Sigma.” for “Sigma. N-succinyl-Ala-Ala-Pro-Arg-p-nitroanilide (BACHEM L-1720) and N-succinyl-Ala-Ala-Pro-Val-p-nitroanilide (BACHEM L-1770) were obtained from BACHEM (King of Prussia, Pa.).”
as §2
as §3, with “In atypical Ki determination, substrate is prepared in DMSO, and diluted into an assay buffer consisting of 50 mM HEPES, 200 mM NaCl, pH 7.5.” left out
as §4, with “Reactions” for “In a typical Ki determination, into each well of a 96 well plate is pipetted 280 mL of substrate solution, 10 mL of test compound solution, and the plate allowed to thermally equilibrate at 37° C. in a Molecular Devices plate reader for>15 minutes. Reactions”
Thrombin: Thrombin activity was assessed as the ability to hydrolyze the substrate N-succinyl-Ala-Ala-Pro-Arg-p-nitroanilide. […] Final reagent concentrations were: [thrombin]=0.5 nM, [substrate N-succinyl-Ala-Ala-Pro-Arg-p-nitroanilide]=32 mM.

human plasmin = target: T3, human plasmin (Homo sapiens, UniProt P00747); test: In vitro inhibition of purified enzymes: plasmin, hydrolysis of N-p-Tosyl-Gly-Pro-Lys-p-nitroanilide
T3 construct: Purified human plasmin was diluted into assay buffer; purchased Enzyme Research Laboratories (South Bend)
T3 sequence (P00747 581-810 limits assumed): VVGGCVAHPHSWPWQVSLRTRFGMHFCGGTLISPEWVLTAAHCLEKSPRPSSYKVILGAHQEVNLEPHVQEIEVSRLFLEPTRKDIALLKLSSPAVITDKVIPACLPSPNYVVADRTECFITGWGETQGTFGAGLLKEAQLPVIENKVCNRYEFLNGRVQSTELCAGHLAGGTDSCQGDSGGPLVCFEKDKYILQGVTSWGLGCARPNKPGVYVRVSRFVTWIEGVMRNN
T3 sequence (P00747 97-580 partner limits assumed): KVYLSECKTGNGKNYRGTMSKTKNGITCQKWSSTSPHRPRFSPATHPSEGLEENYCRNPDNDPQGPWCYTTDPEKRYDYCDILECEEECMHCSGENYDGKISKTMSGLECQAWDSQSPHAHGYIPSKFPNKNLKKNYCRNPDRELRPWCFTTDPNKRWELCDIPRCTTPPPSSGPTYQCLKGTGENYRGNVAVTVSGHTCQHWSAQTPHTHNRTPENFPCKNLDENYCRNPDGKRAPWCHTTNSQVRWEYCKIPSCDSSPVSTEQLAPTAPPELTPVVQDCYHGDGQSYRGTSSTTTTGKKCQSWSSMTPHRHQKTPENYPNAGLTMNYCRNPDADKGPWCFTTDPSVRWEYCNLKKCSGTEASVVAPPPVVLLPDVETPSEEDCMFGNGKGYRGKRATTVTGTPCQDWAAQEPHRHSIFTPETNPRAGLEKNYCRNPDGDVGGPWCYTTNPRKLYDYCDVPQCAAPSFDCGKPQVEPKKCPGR
Text: as §1, §2, §3, §4
Plasmin: Plasmin activity was assessed as the ability to hydrolyze the N-p-Tosyl-Gly-Pro-Lys-p-nitroanilide. Substrate solutions were prepared at a concentration of 37 mM (37 mM<<Km=243 mM) in assay buffer. Final DMSO concentration was 4.3%. Purified human plasmin was diluted into assay buffer to a concentration of 240 nM. Final reagent concentrations were: [Plasmin]=8 nM, [N-p-Tosyl-Gly-Pro-Lys-p-nitroanilide]=37 mM.

bovine α-chymotrypsin = target: T4, bovine α-chymotrypsin (Bos taurus, UniProt P00766); test: In vitro inhibition of purified enzymes: chymotrypsin, hydrolysis of N-succinyl-Ala-Ala-Pro-Phe-p-nitroanilide
T4 construct: Bovine α-chymotrypsin (Sigma C4129); purchased Sigma C4129
Text: as §1, §2, §3, §4
Chymotrypsin: Chymotrypsin activity was assessed as the ability to hydrolyze N-succinyl-Ala-Ala-Pro-Phe-p-nitroanilide. […] Final DMSO concentration was 4.3%. Purified bovine chymotrypsin was diluted into assay buffer to a concentration of 81 nM. Final reagent concentrations were: [Chymotrypsin]=2.7 nM, [N-succinyl-Ala-Ala-Pro-Phe-p-nitroanilide]=14 mM.

human factor Xa = target: T5, human factor Xa (Homo sapiens, UniProt P00742); test: In vitro inhibition of purified enzymes: Factor X [FXa], hydrolysis of N-benzoyl-Ile-Glu-Gly-Arg-p-nitroanilide; conditions: for Ki: 37° C., pH 7.5
T5 construct: purchased Enzyme Research Laboratories (South Bend)
T5 sequence (P00742 235-488 limits assumed): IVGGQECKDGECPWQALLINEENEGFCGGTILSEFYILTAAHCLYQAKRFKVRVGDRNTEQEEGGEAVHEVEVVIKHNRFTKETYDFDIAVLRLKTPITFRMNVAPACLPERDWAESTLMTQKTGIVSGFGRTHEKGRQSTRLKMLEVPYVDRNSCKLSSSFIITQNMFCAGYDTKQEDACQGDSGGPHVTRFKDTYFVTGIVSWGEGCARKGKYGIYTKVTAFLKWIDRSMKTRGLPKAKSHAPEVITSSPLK
T5 sequence (P00742 41-179 partner limits assumed): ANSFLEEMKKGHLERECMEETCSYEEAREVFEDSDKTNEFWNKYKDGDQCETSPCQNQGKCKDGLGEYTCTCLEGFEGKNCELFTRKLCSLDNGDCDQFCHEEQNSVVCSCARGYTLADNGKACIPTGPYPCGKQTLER
Text: as §1, §2, §3, §4
Factor X [FXa]: FXa activity was assessed as the ability to hydrolyze the substrate N-benzoyl-Ile-Glu-Gly-Arg-p-nitroanilide hydrochloride. […] Final DMSO concentration was 4.3%. Purified activated human Factor X was diluted into assay buffer to a concentration of 300 nM. Final reagent concentrations were: [FXa]=10 nM, [N-benzoyl-Ile-Glu-Gly-Arg-p-nitroanilide hydrochloride]=51 mM.

human leukocyte elastase = target: T6, human leukocyte elastase (Homo sapiens, UniProt P08246); test: In vitro inhibition of purified enzymes: elastase, hydrolysis of N-succinyl-Ala-Ala-Pro-Val-p-nitroanilide
T6 construct: purchased Elastin Products (Pacific, Mo.)
T6 sequence (P08246 30-247 limits assumed): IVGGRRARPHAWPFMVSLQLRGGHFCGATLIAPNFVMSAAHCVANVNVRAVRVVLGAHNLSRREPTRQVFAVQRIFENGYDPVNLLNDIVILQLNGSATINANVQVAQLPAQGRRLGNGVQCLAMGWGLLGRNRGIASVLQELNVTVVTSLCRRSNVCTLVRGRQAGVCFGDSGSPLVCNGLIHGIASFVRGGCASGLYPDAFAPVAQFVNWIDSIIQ
Text: as §1, §2, §3, §4
Elastase: Elastase activity was assessed as the ability to hydrolyze N-succinyl-Ala-Ala-Pro-Val-p-nitroanilide. Substrate solutions were prepared at a concentration of 19 mM (19 mM<<Km=89 mM) in assay buffer. Final DMSO concentration was 4.3%. Purified human leukocyte elastase was diluted into assay buffer to a concentration of 750 nM. Final reagent concentrations were: [Elastase]=25 nM, [N-succinyl-Ala-Ala-Pro-Val-p-nitroanilide]=19 mM.

Cc1ccc(NS(=O)(=O)Cc2ccccc2)c(=O)n1CC(=O)NCCCONC(=N)N.O=C(O)C(F)(F)F [Example 1, 3-Benzylsulfonylamino-6-methyl-1-[(3-guanidinooxypropyl)aminocarbonylmethyl]-2-pyridinone trifluorocaetate]
% Inhibition Trypsin (bovine trypsin; at 24,000 nM): 0 @ % | Ki (human α-thrombin): 53 nM | % Inhibition Plasmin (human plasmin; at 24,000 nM): 0 @ % | % Inhibition Chymo. (bovine α-chymotrypsin; at 24,000 nM): 0 @ % | % Inhibition FXa (human factor Xa; at 24,000 nM): 0 @ % | % Inhibition Elastase (human leukocyte elastase; at 24,000 nM): 0 @ %

Cc1ccc(NS(=O)(=O)Cc2ccccc2)c(=O)n1CC(=O)NCCONC(=N)N [Example 2, 3-Benzylsulfonylamino-6-methyl-1-[(2-guanidinooxyethyl)aminocarbonylmethyl]-2-pyridinone trifluoroacetate]
inhibition at 24.5 µM (bovine trypsin; at 24,500 nM): 0% | Ki (human α-thrombin): 7.9 nM | inhibition at 24.5 µM (human plasmin; at 24,500 nM): 0% | Ki (bovine α-chymotrypsin; 37° C., pH 7.5, read-out: Ki Chymo.): 14000 nM | Ki (human factor Xa): 24000 nM | inhibition at 24.5 µM (human leukocyte elastase; at 24,500 nM): 0%

N=C(N)NOCCNC(=O)Cn1cccc(NS(=O)(=O)Cc2ccccc2)c1=O [Example 4, 3-Benzylsulfonylamino-1-[(2-guanidinooxyethyl)aminocarbonylmethyl]-2-pyridinone trifluoroacetate]
Ki (human α-thrombin): 29 nM | Ki (human factor Xa): 7900 nM | inhibition at 79 µM (human leukocyte elastase; at 79,000 nM): 0%

Cc1cccc(S(=O)(=O)Nc2ccc(C)n(CC(=O)NCCONC(=N)N)c2=O)c1 [Example 5, 3-(3-Methylphenylsulfonyl)amino-6-methyl-1-[(2-guanidinooxyethyl)aminocarbonylmethyl]-2-pyridinone trifluoroacetate]
inhibition at 24.6 µM (bovine trypsin; at 24,600 nM): 0% | inhibition at 24.6 µM (human plasmin; at 24,600 nM): 0% | inhibition at 24.6 µM (bovine α-chymotrypsin; at 24,600 nM, read-out: % Inhibition Chymo.): 0% | inhibition at 24.6 µM (human leukocyte elastase; at 24,600 nM): 0%

Cc1ccc(NS(=O)(=O)Cc2ccccc2)c(=O)n1CC(=O)N1CCC(ONC(=N)N)CC1 [Example 8, 3-(Benzylsulfonyl)amino-6-methyl-1-[(4-guanidinooxy)piperidinylcarbonylmethyl]-2-pyridinone trifluoroacetate]
inhibition at 56 µM (bovine trypsin; at 56,000 nM): 0% | Ki (human α-thrombin): 43 nM | inhibition at 56 µM (human leukocyte elastase; at 56,000 nM): 0%

Cc1ccc(NS(=O)(=O)Cc2ccc(Cl)cc2)c(=O)n1CC(=O)NCCONC(=N)N [Example 16, 3-(4-Chlorobenzylsulfonyl)amino-6-methyl-1-[(2-guanidinooxyethyl)aminocarbonylmethyl]-2-pyridinone trifluoroacetate]
Ki (bovine trypsin): 4000 nM | Ki (human α-thrombin): 2 nM | Ki (human factor Xa): 2200 nM | inhibition at 19 µM (human leukocyte elastase; at 19,000 nM): 0%

Cc1ccc(NS(=O)(=O)Cc2ccc(Cl)c(Cl)c2)c(=O)n1CC(=O)NCCONC(=N)N [Example 24, 3-(3,4-Dichlorobenzylsulfonyl)amino-6-methyl-1-[(2-guanidinooxyethyl)aminocarbonylmethyl]-2-pyridinone trifluoroacetate]
Ki (bovine trypsin): 7600 nM | Ki (human α-thrombin): 2 nM | Ki (human factor Xa): 2200 nM | inhibition at 18 µM (human leukocyte elastase; at 18,000 nM): 0%

Cc1ccc(NS(=O)(=O)c2ccccc2Cl)c(=O)n1CC(=O)NCCONC(=N)N [Example 30, 3-(2-Chlorophenylsulfonyl)amino-6-methyl-1-[(2-guanidinooxyethyl)aminocarbonylmethyl]-2-pyridinone trifluoroacetate]
inhibition at 23.5 µM (bovine trypsin; at 23,500 nM): 0% | Ki (human α-thrombin): 61 nM | inhibition at 23.5 µM (human plasmin; at 23,500 nM): 0% | inhibition at 23.5 µM (bovine α-chymotrypsin; at 23,500 nM, read-out: % Inhibition Chymo.): 0% | Ki (human factor Xa): 7600 nM | inhibition at 23.5 µM (human leukocyte elastase; at 23,500 nM): 0%

Cc1ccc(NS(=O)(=O)c2ccc(I)cc2)c(=O)n1CC(=O)NCCONC(=N)N [Example 38, 3-(4-Iodophenylsulfonyl)amino-6-methyl-1-[(2-guanidinooxyethyl)aminocarbonylmethyl]-2-pyridinone trifluoroacetate]
inhibition at 20 µM (bovine trypsin; at 20,000 nM): 0% | Ki (human α-thrombin): 51 nM | inhibition at 20 µM (human plasmin; at 20,000 nM): 0% | inhibition at 20 µM (bovine α-chymotrypsin; at 20,000 nM, read-out: % Inhibition Chymo.): 0% | Ki (human factor Xa): 420 nM | inhibition at 20 µM (human leukocyte elastase; at 20,000 nM): 0%

COc1ccc(Br)cc1S(=O)(=O)Nc1ccc(C)n(CC(=O)NCCONC(=N)N)c1=O [Example 55, 3-(3-Bromo-6-methoxyphenylsulfonyl)amino-6-methyl-1-[(2-guanidinooxyethyl)aminocarbonylmethyl]-2-pyridinoine trifluoroacetate]
Ki (bovine trypsin): 2300 nM | Ki (human α-thrombin): 220 nM | Ki (human factor Xa): 2100 nM
